Read-outs that look alike come from different tables or passages of the source.
What was measured:
rat bladder = experiment: Distension-induced rhythmic contraction (DIRC) model, micturition reflex; assay type: in vivo; conditions: i.v.; for inhibition of bladder activity, persisted for: anesthetized rat, figure legend (FIG. 1, FIG. 2)
Protocol: The effects of compounds on the micturition reflex were assessed in the “distension-induced rhythmic contraction” (DIRC) model (also called “volume-induced rhythmic contraction” model) in rats, as described in previous publications (e.g. Maggi, et al., 1987; Morikawa, et al., 1992; Guarneri, et al., 1993). This model is widely considered to be predictive for the actions of drugs to treat human urge incontinence (also referred to as detrusor instability or unstable bladder). Examples of drugs that are active in this model which also are used therapeutically in humans include oxybutynin and baclofen (Morikawa et al, 1992); imipramine and nortriptyline (36); and nifedipine and terodiline (37).
Female Sprague Dawley rats weighing approximately 300 g were anesthetized with subcutaneous urethane ([…]). The trachea was cannulated with PE240 tubing to provide a clear airway throughout the experiment. A midline abdominal incision was made and the left and right ureters were isolated. The ureters were ligated distally (to prevent escape of fluids from the bladder) and cannulated proximally with PE10 tubing. The incision was closed using 4-0 silk sutures, leaving the PE10 lines routed to the exterior for the elimination of urine. The bladder was canulated via the transurethral route using PE50 tubing inserted 2.5 cm beyond the urethral opening. This cannula was secured to the tail using tape and connected to a pressure transducer. To prevent leakage from the bladder, the cannula was tied tightly to the exterior urethral opening using 4-0 silk.
To initiate the micturition reflex, the bladder was first emptied by applying pressure to the lower abdomen, and then filled with normal saline in 100 μL increments (maximum=2 ml) until spontaneous bladder contractions occurred (typically 20-40 mmHg) at a rate of one contraction every 2 to 3 minutes. Once a regular rhythm was established, vehicle (saline) or test compounds were administered i.v. to examine their effects on bladder activity. The effect of a compound which inhibited the micturition reflex was expressed as its “disappearance time”, defined as the time between successive bladder contractions in the presence of the test compound minus the time between contractions before compound administration.
Female Sprague Dawley rats weighing approximately 300 g were anesthetized with subcutaneous urethane (1.2 g/kg). The trachea was cannulated with PE240 tubing to provide a clear airway throughout the experiment. A midline abdominal incision was made and the left and right ureters were isolated. The ureters were ligated distally (to prevent escape of fluids from the bladder) and cannulated proximally with PE10 tubing. […]

rNPFF-1 [1] = molecular target: T1, rNPFF-1 (Rattus norvegicus, UniProt Q9EP86); experiment: Radioligand binding assay, competitive displacement of [125I]1DMeNPFF at cloned NPFF receptors; conditions: cloned rat receptor
T1 construct: expressed in transfected cells

rNPFF-2 [2] = molecular target: T2, rNPFF-2 (Rattus norvegicus, UniProt Q9EQD2); experiment: Functional activity (EC50 and intrinsic activity relative to NPFF); assay type: cell-based; conditions: for Functional Activity rNPFF-2 I.A. %: intrinsic activity as percentage of maximal response by NPFF
T2 construct: expressed in transfected cells
Excerpt: (§1) The data shown are representative of at least two independent experiments.

rNPFF-1 [3] = molecular target: T1, rNPFF-1; experiment: as above; assay type: cell-based; conditions: for Functional Activity rNPFF-1 I.A. %: intrinsic activity as percentage of maximal response by NPFF; for EC50: tested 0.001 nM to 3600 nM
Excerpt: as §1

rNPFF-2 [4] = molecular target: T2, rNPFF-2; experiment: Radioligand binding assay, competitive displacement of [125I]1DMeNPFF at cloned NPFF receptors; conditions: cloned rat receptor
[5] = tested 0.001 nM to 3600 nM, read-out: Functional Activity rNPFF-2 EC50

T2 sequence (Q9EQD2 whole entry): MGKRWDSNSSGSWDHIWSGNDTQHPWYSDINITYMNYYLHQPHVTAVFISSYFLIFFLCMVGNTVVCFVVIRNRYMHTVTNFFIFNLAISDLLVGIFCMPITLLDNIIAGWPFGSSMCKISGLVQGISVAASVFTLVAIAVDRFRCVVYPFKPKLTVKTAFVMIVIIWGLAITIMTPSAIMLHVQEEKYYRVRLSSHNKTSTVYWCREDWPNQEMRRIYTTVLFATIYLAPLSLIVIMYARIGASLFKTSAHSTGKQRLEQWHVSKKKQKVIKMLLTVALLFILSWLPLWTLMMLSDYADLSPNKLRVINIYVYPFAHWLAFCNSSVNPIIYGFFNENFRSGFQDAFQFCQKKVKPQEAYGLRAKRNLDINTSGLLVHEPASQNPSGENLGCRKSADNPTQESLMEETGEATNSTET
T1 sequence (Q9EP86 whole entry): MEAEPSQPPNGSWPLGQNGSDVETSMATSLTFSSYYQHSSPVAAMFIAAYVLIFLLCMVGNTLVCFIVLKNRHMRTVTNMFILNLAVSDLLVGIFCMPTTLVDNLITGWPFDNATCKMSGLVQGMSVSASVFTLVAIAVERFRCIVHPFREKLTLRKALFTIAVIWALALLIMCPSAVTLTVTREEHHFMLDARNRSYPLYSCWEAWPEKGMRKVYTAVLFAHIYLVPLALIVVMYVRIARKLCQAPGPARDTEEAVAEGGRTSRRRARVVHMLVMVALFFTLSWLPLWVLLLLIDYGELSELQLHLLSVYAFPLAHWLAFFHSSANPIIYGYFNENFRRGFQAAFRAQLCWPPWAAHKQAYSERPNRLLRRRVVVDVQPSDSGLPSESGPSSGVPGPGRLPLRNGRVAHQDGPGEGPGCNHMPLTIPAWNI

Compound	inhibition of distention induced contractions of the rat bladder (rat bladder; 3 mg/kg)	inhibition of bladder activity, persisted for (rat bladder)	inhibition of distention induced contractions of the rat bladder (rat bladder; 1 mg/kg)	Ki (rNPFF-1 [1])	EC50 (rNPFF-2 [2])	Functional Activity rNPFF-2 I.A. % (rNPFF-2 [2])	Functional Activity rNPFF-1 I.A. % (rNPFF-1 [3])	Ki (rNPFF-2 [4])	EC50 (rNPFF-2 [2]; [5])	EC50 (rNPFF-1 [3])
Cc1ccc2c(C)cc(NC(=N)N)nc2c1 [N-(4,7-dimethyl-2-quinolinyl)guanidine]	complete inhibition	12 min	–	–	–	–	–	–	–	–
Cc1cc(NC(=N)N)nc2ccc(Cl)cc12 [N-(6-chloro-4-methyl-2-quinolinyl)guanidine]	–	35 min	complete inhibition	–	–	–	–	–	–	–
N=C(N)NCCC[C@H](NS(=O)(=O)c1ccc([N+](=O)[O-])cc1[N+](=O)[O-])C(=O)N[C@@H](Cc1ccccc1)C(N)=O [Compound 2002]	–	–	–	1390 nM	> 10000 nM	05%	34%	5490 nM	–	–
N=C(N)NCCC[C@H](NS(=O)(=O)c1ccc(I)cc1)C(=O)N[C@@H](Cc1ccccc1)C(N)=O [Compound 1012]	–	–	–	1430 nM	–	93%	71%	2920 nM	1420 nM	358 nM
N=C(N)NCCC[C@H](NS(=O)(=O)c1c(F)c(F)c(F)c(F)c1F)C(=O)N[C@@H](Cc1ccccc1)C(N)=O [Compound 1024]	–	–	–	486 nM	–	43%	69%	5400 nM	> 3160 nM	720 nM
Cc1ccc(S(=O)(=O)N[C@@H](CCCNC(=N)N)C(=O)N[C@@H](Cc2ccccc2)C(N)=O)cc1 [Compound 1007]	–	–	–	756 nM	–	55%	79%	3080 nM	2300 nM	286 nM
N=C(N)NCCC[C@H](NS(=O)(=O)c1cccc2ccccc12)C(=O)N[C@@H](Cc1ccccc1)C(N)=O [Compound 1001, N1-[(1S)-2-Amino-1-benzyl-2-oxoethyl]-(2S)-(5-guanidino)-2-[(1-naphthylsulfonyl)amino]pentanamide]	–	–	–	261 nM	–	81%	88%	1450 nM	527 nM	38 nM

— patent publication US20030144310A1 (priority 2001, published 2003)
